Entries after “also recorded” stand apart in the source; their conditions may differ.
Columns and labels:
Assay type in all cases: cell-based, human
[1] = tested on: lysosomes (LAMP-1) in ARPE-19 cells; assay: Confocal imaging of lipofuscin A2E and LAMP-1 in ARPE-19 cells
Experimental: (§1) Panel A) CLR01 in PBS and lipofuscin A2E were added to the cells at the indicated times. Cells were incubated up to 6 h in all cases and were imaged using a fluorescence microscope for visualization of lipofuscin autofluorecence (red) and cell nuclei (DAPI, blue). Panel B) Quantification of the data shown in panel A (N=15 per condition). C) Confocal microscopy images showing that lipofuscin colocalizes with the Lysosomal-membrane marker lamp1.

[2] = tested on: pre-formed lipofuscin (A2E) aggregates in ARPE-19 cells; assay: Effect on pre-formed lipofuscin aggregates in ARPE-19 cells (A2E 10 h, wash, CLR01 12 h); details: A2E 100 μM for 10 h, CLR01 100 μM for 12 h
Experimental: FIG. 2, panel A) CLR01 in PBS and lipofuscin A2E were added to the cells at the indicated times. Cells were incubated up to 22 hours in all cases and were imaged using a fluorescence microscope for visualization of lipofuscin autofluorecence (red) and cell nuclei (DAPI, blue). FIG. 2, panel B) Quantification of the data shown in […] (N=15 per condition). Condition 1—negative control—20 μl of DMSO was added to the cells at t=0. After 10 h, the media was removed, the cells were washed with F12 medium, and new media was added. Condition 2—positive control—Lipofuscin A2E in DMSO at final concentration of 100 μM was added to the cells at t=0. After 10 h, the media was removed, the cells were washed with F12 medium, and new media was added. Condition 3—Lipofuscin A2E in DMSO was added to the cells at t=0. After 10 h, the media was removed, the cells were washed with F12 medium, and new media was added. CLR01 in PBS at final concentration of 100 μM was added at t=10 h.
The effect of CLR01 on pre-formed lipofuscin aggregates was tested as well. Human, ARPE-19 cells were treated with lipofuscin (A2E) for 10 h (to let lipofuscin aggregates form). Upon washing the cells to remove A2E from the media, CLR01 was added to the medium for an additional period of 12 h. Cells were then imaged by fluorescence microscopy and fluorescence quantified (FIG. 2). […]

[3] = tested on: lipofuscin (A2E) aggregation in ARPE-19 cells (retinal pigmented epithelium); assay: Lipofuscin A2E accumulation/aggregation in ARPE-19 cells, fluorescence microscopy after 6 h
Experimental: as §1
To test the effect of CLR01 on lipofuscin aggregation, human, ARPE-19 cells (retinal pigmented epithelium; RPE) were treated with lipofuscin (A2E) in the absence or presence of CLR01 and imaged by fluorescence microscopy at the end of 6 h of incubation (FIG. 1, panel A), as follows: • Condition 1—negative control—20 μl of PBS was added to the cells at t=0 and 20 μl of DMSO at t=1.5 h. • Condition 2—safety control—CLR01 in PBS at final concentration of 100 μM was added to the cells at t=0 and DMSO at t=1.5 h. • Condition 3—positive control—PBS was added to the cells at t=0 and lipofuscin A2E in DMSO at final concentration of 100 μM at t=1.5 h. Lipofuscin A2E is a specific type of lipofuscin enriched in N-retinylidene-N-retinylethanolamine (A2E), which is derived from 11-cis-retinal and accumulates in the retinal pigmented epithelium (Boyer et al. (2012) J. Biol. Chem. 287: 22276-22286). • Condition 4—CLR01 in PBS at final concentration of 100 μM was added to the cells at t=0, after 1.5 h, the media was removed, the cells were washed with F12 medium, and new media was added. Lipofuscin A2E in DMSO at final concentration of 100 μM was added at t=1.5 h. • Condition 5—Lipofuscin A2E in DMSO was added to the cells at t=0 and CLR01 in PBS at final concentration of 100 μM was added at t=1 h.

With CLR01 the lysosome integrity [1] was “lysosome integrity was not affected”, the “clearing effect compared with condition 5 of FIG. 1 (CLR01 added simultaneously with lipofuscin loading)” value [2] was “lower” and the “inhibition of lipofuscin accumulation and aggregation (overall finding)” value ([3]; ARPE-19 retinal cells, CLR01 100 μM, lipofuscin A2E 100 μM) was “inhibits lipofuscin accumulation and aggregation; also recorded: powerfully inhibits the formation of lipofuscin aggregates”. For the same substance, the “harm to the cells (safety control)” value ([3]; condition 2: CLR01 100 μM at t=0, DMSO at t=1.5 h, no A2E, ARPE-19 cells, 6 h) was “did not harm the cells”, the “reduction of the accumulation of lipofuscin aggregates at 6 h” value ([3]; condition 4: CLR01 100 μM at t=0, washed out after 1.5 h, then lipofuscin A2E 100 μM, ARPE-19 cells, 6 h) was about 60% and the “accumulation of lipofuscin aggregates” value ([3]; condition 5: lipofuscin A2E at t=0, CLR01 100 μM added at t=1 h, ARPE-19 cells, 6 h) was “reduced almost to the negative-control level”.
